The results in this text go back to patent US10647598B2, “Antimicrobial and algicidal agent for cooling water system” (KURITA WATER INDUSTRIES LTD., priority 2013, dated 2020).

For experiment [1], the system named is Algae A. The experiment is described as follows: Test tube algicidal test on algae A sampled from cooling tower A. Format: cell-based, diatoms, containing green algae. More on the design: key to the marks not given beside the values. The settings on record: visual inspection after 3 days at north-side window; CSA and algicidal agent amounts per example as in Table 1. The procedure:
(§1) A test water system containing algae was prepared as described below.
(§2) Secondary treated water obtained by filtrating sewage using a filter having a pore diameter of 0.1 μm was received in a beaker having a volume of 1 L, and to this secondary treated water, 1 g of algae sampled from each of cooling towers A, B, and C in which an antimicrobial treatment was performed using a chlorosulfamic acid was added. Algae A sampled from the cooling tower A were diatoms and contained green algae. Algae B sampled from the cooling tower B were primarily formed of green algae and contained blue-green algae and diatoms. Algae C sampled from the cooling tower C were primarily formed of blue-green algae and contained green algae and diatoms.
(§3) After being raveled and sufficiently dispersed in the beaker, the algae A, B, and C were each dispensed into test tubes.
(§4) In Examples 1 to 5 and Comparative Examples 8 to 11 and 13 to 16, a chlorosulfamic acid (abbreviated as “CSA”, and the addition amount represents the residual chlorine concentration) and one of 5-chloro-2-methyl-4-isothiazolone-3-one (abbreviated as “MIT”), 2,2-dibromo-3-nitrilopropion amide (abbreviated as “DBNPA”), and 2-bromo-2-nitro-1,3-propanediol (abbreviated as “BNP) were added to each test tube so as to have predetermined concentrations shown in Table 1. In Comparative Example 6, MIT was only added. In Comparative Example 7, DBNPA was only added. In Comparative Example 12, BNP was only added. In Comparative Example 17, no chemical agents were added. Subsequently, after the test tubes were left for 3 days at a north-side window so as not to be exposed to direct sunlight, the conditions of the algae were observed by visual inspection and evaluated in accordance with the following criteria.
(§5) <Evaluation Criteria> • −: Reduction (death) of algae is apparently observed from the start of the test. • ±: Condition is the same as that at the start of the test. • +: Slight increase of algae is observed as compared to the condition at the start of the test. • ++: Apparent increase of algae is observed as compared to the condition at the start of the test. • +++: Significant increase of algae is observed as compared to the condition at the start of the test.

Experiment [2] has as its system Algae B. As to the kind of experiment: Test tube algicidal test on algae B sampled from cooling tower B. The experiment is classed as cell-based, green algae, containing blue-green algae and diatoms. Particulars: visual inspection after 3 days at north-side window; CSA and algicidal agent amounts per example as in Table 1. The procedure: as §1, §2, §3, §4, §5
The test system of experiment [3] is Algae C. As to the kind of experiment: Test tube algicidal test on algae C sampled from cooling tower C. Format: cell-based, blue-green algae, containing green algae and diatoms. Also on record: key to the marks not given beside the values. Particulars: visual inspection after 3 days at north-side window; CSA and algicidal agent amounts per example as in Table 1. As for the experimental part: as §1, §2, §3, §4, §5

Experiment [4] relates to algae A to C. As to the kind of experiment: Test tube algicidal test, overall assessment. The experiment is classed as cell-based. The settings on record: Table 1, algae A to C, 3 days. As for the experimental part:
as §1, §2, §3
In Examples 1 to 5 and Comparative Examples 8 to 11 and 13 to 16, a chlorosulfamic acid (abbreviated as “CSA”, and the addition amount represents the residual chlorine concentration) and one of 5-chloro-2-methyl-4-isothiazolone-3-one (abbreviated as “MIT”), 2,2-dibromo-3-nitrilopropion amide (abbreviated as “DBNPA”), and 2-bromo-2-nitro-1,3-propanediol (abbreviated as “BNP) were added to each test tube so as to have predetermined concentrations shown in Table 1. In Comparative Example 6, MIT was only added. In Comparative Example 7, DBNPA was only added. In Comparative Example 12, BNP was only added. In Comparative Example 17, no chemical agents were added. Subsequently, after the test tubes were left for 3 days at a north-side window so as not to be exposed to direct sunlight, the conditions of the algae were observed by visual inspection and evaluated in accordance with the following criteria. […]

In the case of `O=S(=O)(O)NCl` [Comparative Example 1, chlorosulfamic acid], in experiment [1], the “Evaluation Results Algae A” value is reported as “+++”. The “Evaluation Results Algae B” value in experiment [2] is listed as “++”. Also, the “Evaluation Results Algae C” value in experiment [3] is recorded as “+++”.

Turning to `Cn1sc(Cl)cc1=O` [Comparative Example 6, 5-chloro-2-methyl-4-isothiazolone-3-one], in experiment [1], the “Evaluation Results Algae A” value was “++”. In addition, the “Evaluation Results Algae B” value in experiment [2] was “+”. For the same compound, the “Evaluation Results Algae C” value in experiment [3] is given as “+++”. For the same compound, in experiment [4], the “Algicidal effect, assessment in words” value is “a sufficient effect cannot be obtained”.

In the case of `N#CC(Br)(Br)C(N)=O` [Comparative Example 7, 2,2-dibromo-3-nitrilopropion amide], in experiment [1], the “Evaluation Results Algae A” value is “++”. Moreover, in experiment [2], the “Evaluation Results Algae B” value was “+”. The “Evaluation Results Algae C” value in experiment [3] is given as “+++”.

Turning to `O=[N+]([O-])C(Br)(CO)CO` [Comparative Example 12, 2-bromo-2-nitro-1,3-propanediol], in experiment [1], the “Evaluation Results Algae A” value is “++”. Moreover, the “Evaluation Results Algae B” value in experiment [2] is on record as “++”. In addition, the “Evaluation Results Algae C” value in experiment [3] is reported as “+++”.

With `O=S(=O)(O)NCl` [compound 2, chlorosulfamic acid], in experiment [1], the “Evaluation Results Algae A” value is reported as “+++”. In experiment [2], the “Evaluation Results Algae B” value is listed as “++”. The “Evaluation Results Algae C” value in experiment [3] was “+++”.

In the case of `O=S(=O)(O)NCl` [compound 3, chlorosulfamic acid], in experiment [1], the “Evaluation Results Algae A” value is recorded as “+++”. Moreover, the “Evaluation Results Algae B” value in experiment [2] is on record as “++”. Moreover, the “Evaluation Results Algae C” value in experiment [3] was “+++”.

For the compound `O=S(=O)(O)NCl` [compound 4, chlorosulfamic acid], in experiment [1], the “Evaluation Results Algae A” value is “+++”. Besides, in experiment [2], the “Evaluation Results Algae B” value is on record as “+”. For the same compound, the “Evaluation Results Algae C” value in experiment [3] is given as “++”. In addition, the “Algicidal effect, assessment in words” value in experiment [4] was “a sufficient effect also cannot be obtained”.

Take `O=S(=O)(O)NCl` [compound 5, chlorosulfamic acid]: the “Evaluation Results Algae A” value in experiment [1] is given as “+++”. In addition, the “Evaluation Results Algae B” value in experiment [2] is on record as “+”. Besides, the “Evaluation Results Algae C” value in experiment [3] is recorded as “++”. The “Algicidal effect, assessment in words” value in experiment [4] was “a sufficient effect also cannot be obtained”.
